Tests used:
dogs = assay: Feeding safety study of dl-alpha lipoic acid in food: body weight, physical examination, serum biochemistry, hematology (Example 3); format: in vivo
Excerpt: (§1) 30 adult, random source, dogs were utilized for this study. Dogs were at least 10 months of age, not pregnant, not lactating and of reasonable body weight prior to start of test. Animals were randomized into 5 groups for dietary treatment with 3 males and 3 females per each group.
All dogs were fed a control food (0 ppm dl-alpha-lipoic acid added) that met or exceeded all recommendations for nutrients as proposed by the American Association of Feed Control Officials (AAFCO 2000) during a 2 week prefeeding period (Table 1). […]
Test foods were the sole source of nutrients except for water. […] After dogs were selected and initial body weights taken, a food dose was calculated for each dog based on the expected ME of the food. Initial food dose calculations were based on the maintenance energy requirement (MER) for the dog modified by a factor to account for normal activity as calculated by the following formula: […]
Dogs were weighed weekly and had food doses adjusted as needed in order to feed enough food to maintain their optimal body weight. Optimal body weight was determined to be 3 on a 5 point scale. […] All measures of body weight and food intake were recorded. […]
Comparison of values for clinical chemistry, hematology and body weights vs baseline were analyzed by way of paired t-test on SAS for windows with significance set at P<0.05. […]

GSH:GSSG ratio = GSH:GSSG ratio in isolated blood lymphocytes of dogs fed dl-alpha lipoic acid (Example 3); format: in vivo
Excerpt: as §1
All dogs were fed a control food (0 ppm dl-alpha-lipoic acid added) that met or exceeded all recommendations for nutrients as proposed by the American Association of Feed Control Officials (AAFCO 2000) during a 2 week prefeeding period (Table 1). Following the prefeeding period dogs were randomized into 5 treatment groups with one of the following dl-alpha lipoic acid target-inclusions (dry matter basis): 0 ppm, 150 ppm, 1500 ppm, 3000 ppm, 4500 ppm. In all diets, control and alpha lipoic acid, Vitamin E was added and was present at a level of 600-1000 International Units and Vitamin C was added at levels of 100-200 ppm.
Blood was collected aseptically for complete blood count, and blood biochemistry analysis 2 weeks prior to start and again at 0, 28, 56, 84, 112, 140 and 168 days of the study. In addition, 15 ml of whole blood was collected for isolation of lymphocytes at day 0, 28 and 84 of the dietary intervention.
Heparainzed whole blood was layered onto a 50 ml Accuspin conical centrifuge tube (Sigma Chemical) and an equal volume of Phosphate buffered saline (PBS) was added. Samples were centrifuged at 700 g for 30 minutes without brake. The monocyte layer was harvested, transferred to a 15 ml conical centrifuge tube, resuspended in 1-3 ml of PB, and centrifuged as before (First wash). A second wash was performed as the first wash. Finally, cells were harvested and suspended in perchloric acid (10%w/v) and frozen at −−70C until analysis.
Samples were transferred from −70° C. freezer into a cooler with dry ice in it. Vials were centrifuged at 12,000 rpm for 5 minutes in a refrigerated centrifuge. An aliquot of supernatant for glutathione (GSH) analysis was transferred to a conical test tube.
Derivatization of the acid soluble extracts was by the method of Reed and coworkers (Fariss et al) as modified by Jones (Jones et al)
Briefly, 150 μl extract or external standards were added into a 1.5 ml eppendorf tube followed by addition of 20 μl γ-glu-glu internal standard and 50 μl IAA added followed by mixing. The solution was adjusted to pH ˜10 (purple color) by using KOH—KHCO3 working solution. Solutions were incubated 1 hr. under room temperature in the dark. Sanger's reagent was added at the same volume as of the total volume and the solution was incubated overnight (20 hrs) in the dark at room temperature.
After incubation, the solution was centrifuged at 12000 rpm for 5 minutes with the supernatant transferred into another 1.5 ml eppendorf tube.
Solvents and separation conditions were as described (Fariss, Jones). Levels of GSH and GSSG were quantified relative to authentic standards. Gamma-glutamyl-glutamate was used as an internal standard to assess derivatization efficiency.
Comparison of values for clinical chemistry, hematology and body weights vs baseline were analyzed by way of paired t-test on SAS for windows with significance set at P<0.05. Means of values at each measured time point were separated by a one-way ANOVA with significance set at P<0.05. The difference in GSH:GSSG between day 84 and baseline were analyzed between groups by way of SAS for windows in a one-way ANOVA with significance set at P<0.05.

O=C(O)CCCCC1CCSS1 (racemic) [dl-alpha-lipoic acid]
safety of chronic feeding in diet (dogs; dog, in vivo): safe
vomiting during the study (dogs; dogs, no trend attributable to lipoic acid): Occasional vomiting was observed in several animals
Difference in GSH:GSSG ratio-d 0 to d 84 compared to baseline food (GSH:GSSG ratio; 150 ppm inclusion in extruded food, N 6): 70 ± 20
Difference in GSH:GSSG ratio-d 0 to d 84 compared to baseline food (GSH:GSSG ratio; 1500 ppm inclusion in extruded food, N 6): 24 ± 7
Difference in GSH:GSSG ratio-d 0 to d 84 compared to baseline food (GSH:GSSG ratio; 3000 ppm inclusion in extruded food, N 4): 10 ± 4
Difference in GSH:GSSG ratio-d 0 to d 84 compared to baseline food (GSH:GSSG ratio; 4500 ppm inclusion in extruded food, N 4): 50 ± 36
effect on reduced glutathione (GSH) to oxidized glutathione (GSSG) ratio (GSH:GSSG ratio; 84 days of feeding in diet): improves

— patent US20020115710A1, “Composition and method” (priority 2000, published 2002)
